Assay results as given in patent US8551721B2, “Bioluminescent detection of cyanohydroxy benzothiazole compounds” (Promega Corporation, priority 2008, dated 2013).

Columns and labels:
Type in all cases: biochemical
Conditions in all cases: 2 hour incubation at 37° C., plus vs minus UDPGA
UGT 1A3 = molecular target: T1, UGT 1A3 (Homo sapiens, UniProt P35503); assay: UGT activity: utilization of substrate by recombinant UGT 1A3 Supersomes
T1 construct: purchased BD Gentest; host or cells: insect cells (microsomes)
T1 sequence (P35503 29-534): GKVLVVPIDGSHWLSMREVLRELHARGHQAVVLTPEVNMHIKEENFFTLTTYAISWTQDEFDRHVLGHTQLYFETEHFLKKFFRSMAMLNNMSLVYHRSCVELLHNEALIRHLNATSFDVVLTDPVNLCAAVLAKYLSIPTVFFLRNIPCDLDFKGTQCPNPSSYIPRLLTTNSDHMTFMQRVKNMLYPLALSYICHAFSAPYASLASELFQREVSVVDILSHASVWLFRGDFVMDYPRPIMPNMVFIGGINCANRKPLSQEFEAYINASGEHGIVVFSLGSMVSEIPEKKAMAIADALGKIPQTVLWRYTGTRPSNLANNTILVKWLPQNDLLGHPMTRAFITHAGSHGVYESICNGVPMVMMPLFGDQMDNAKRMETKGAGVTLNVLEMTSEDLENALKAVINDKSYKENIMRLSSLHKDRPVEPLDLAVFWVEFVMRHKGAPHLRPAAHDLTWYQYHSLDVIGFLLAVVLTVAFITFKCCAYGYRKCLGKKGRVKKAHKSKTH
Experimental: (§1) The invention includes a method of determining activity of the uridine 5′-diphospho-glucuronosyltransferase (UDP-glucuronosyltransferase, or UGT) family enzymes in vitro. Briefly, UGT enzymes from overexpressed insect microsomes (Supersomes™, BD Gentest™) or animal tissue microsomes (Xenotech, BD Gentest™) were incubated with a cyanobenzothiazole substrate of the invention and the cofactor UDP-glucuronic acid (UDPGA) at 37° C. in buffer at physiological pH containing MgCl2 and alamethicin (typically, 50 mM TES, pH 7.5, 8 mM MgCl2, 4 mM UDPGA (Sigma) and 25 μg/mL alamethicin (Sigma)). Following the UGT enzyme reaction, an equal volume of P450-Glo Luciferin Detection Reagent (Promega) containing 15-30 mM D-cysteine-HCl.H2O (Sigma) was added and the plate was mixed and incubated at room temperature, typically for 20-30 minutes. […]
(§2) During this incubation, the cysteine reacts with the cyanobenzathiozole substrate to yield a D-luciferin derivative. […] Therefore, activity of the UGT enzyme can be measured by analyzing the difference (lower or no output) in relative light units (RLU) of a sample in which glucuronidation occurs compared to a sample that was run under the same conditions with no added UDPGA cofactor. […]
(§3) Reactions were assembled in a white 96-well plate. […] After the incubation was completed, the plate was read on a Veritas™ luminometer (Turner BioSystems, Inc.; Sunnyvale, Calif.). […]

UGT 2B15 = molecular target: T2, UGT 2B15 (Homo sapiens, UniProt P54855); assay: UGT activity: utilization of substrate by recombinant UGT 2B15 Supersomes
T2 construct: purchased BD Gentest; host or cells: insect cells (microsomes)
T2 sequence (P54855 24-530): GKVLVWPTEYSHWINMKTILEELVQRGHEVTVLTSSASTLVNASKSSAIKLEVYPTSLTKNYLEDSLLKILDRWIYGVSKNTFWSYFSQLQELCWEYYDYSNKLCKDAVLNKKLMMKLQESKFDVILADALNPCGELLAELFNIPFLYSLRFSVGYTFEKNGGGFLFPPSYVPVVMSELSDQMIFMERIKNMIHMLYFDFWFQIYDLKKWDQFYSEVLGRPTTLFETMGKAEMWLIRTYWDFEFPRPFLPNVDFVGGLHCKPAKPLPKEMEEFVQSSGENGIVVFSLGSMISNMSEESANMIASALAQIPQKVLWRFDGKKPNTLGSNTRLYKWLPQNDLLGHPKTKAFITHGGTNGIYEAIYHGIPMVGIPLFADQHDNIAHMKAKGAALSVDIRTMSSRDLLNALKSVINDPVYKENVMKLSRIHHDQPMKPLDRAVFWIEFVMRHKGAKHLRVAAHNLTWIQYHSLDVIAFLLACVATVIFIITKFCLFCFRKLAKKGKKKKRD
Experimental: as §1, §2, §3

UGT 1A4 = molecular target: T3, UGT 1A4 (Homo sapiens, UniProt P22310); assay: UGT activity: utilization of substrate by recombinant UGT 1A4 Supersomes
T3 construct: purchased BD Gentest; host or cells: insect cells (microsomes)
T3 sequence (P22310 29-534): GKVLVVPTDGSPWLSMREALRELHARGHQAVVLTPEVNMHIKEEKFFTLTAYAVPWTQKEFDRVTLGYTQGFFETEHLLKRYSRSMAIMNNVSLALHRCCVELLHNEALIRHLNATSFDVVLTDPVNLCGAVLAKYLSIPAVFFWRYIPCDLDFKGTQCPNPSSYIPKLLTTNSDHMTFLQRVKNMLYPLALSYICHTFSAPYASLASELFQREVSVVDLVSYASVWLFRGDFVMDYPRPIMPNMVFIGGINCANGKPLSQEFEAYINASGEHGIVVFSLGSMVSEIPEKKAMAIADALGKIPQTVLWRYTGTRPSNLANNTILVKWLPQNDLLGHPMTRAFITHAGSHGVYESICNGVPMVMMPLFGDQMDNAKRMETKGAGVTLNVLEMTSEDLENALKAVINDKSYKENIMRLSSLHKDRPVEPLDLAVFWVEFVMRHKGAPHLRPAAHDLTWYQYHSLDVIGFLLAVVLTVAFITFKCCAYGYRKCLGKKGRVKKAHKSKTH
Experimental: The invention includes a method of determining activity of the uridine 5′-diphospho-glucuronosyltransferase (UDP-glucuronosyltransferase, or UGT) family enzymes in vitro. Briefly, UGT enzymes from overexpressed insect microsomes (Supersomes™, BD Gentest™) or animal tissue microsomes (Xenotech, BD Gentest™) were incubated with a cyanobenzothiazole substrate of the invention and the cofactor UDP-glucuronic acid (UDPGA) at 37° C. in buffer at physiological pH containing MgCl2 and alamethicin (typically, 50 mM TES, pH 7.5, 8 mM MgCl2, 4 mM UDPGA (Sigma) and 25 μg/mL alamethicin (Sigma)). Following the UGT enzyme reaction, an equal volume of P450-Glo Luciferin Detection Reagent (Promega) containing 15-30 mM D-cysteine-HCl.H2O (Sigma) was added and the plate was mixed and incubated at room temperature, typically for 20-30 minutes. P450-Glo Luciferin Detection Reagent can be prepared by dissolving a vial of Promega Luciferin Detection Reagent (Promega Part #V859B) with a vial of Promega P450-Glo Buffer (Promega Part #V865B).
During this incubation, the cysteine reacts with the cyanobenzathiozole substrate to yield a D-luciferin derivative. […] Therefore, activity of the UGT enzyme can be measured by analyzing the difference (lower or no output) in relative light units (RLU) of a sample in which glucuronidation occurs compared to a sample that was run under the same conditions with no added UDPGA cofactor.
In this example, a series of 12 recombinant UGTs expressed in insect microsomes (Supersomes™, BD Gentest™), as well as the control microsomes not expressing the UGT enzyme, were incubated with compound 3138, compound 3478, or compound 3165 as substrates, with or without the UDPGA co-factor. […]
as §3

Compound	utilization by UGT 1A3 (in words) (UGT 1A3)	utilization by UGT 2B15 (in words) (UGT 2B15)	utilization by UGT 1A4 (in words) (UGT 1A4)
Cc1cc(O)cc2sc(C#N)nc12 [compound 3138]	detectable levels of utilization above background	detectable levels of utilization above background	did not utilize either compound 3138 or 3478 to an appreciable extent
Cc1cc(O)cc2sc(C3=NC(C(=O)O)CS3)nc12 (stereo not drawn) [compound 3478]	only UGT 1A6 was able to utilize compound 3478 to any appreciable extent	only UGT 1A6 was able to utilize compound 3478 to any appreciable extent	did not utilize either compound 3138 or 3478 to an appreciable extent
